Source: patent US20120245137A1 (Zalicus Pharmaceuticals Ltd., priority 2009, published 2012)

Legend:
[1] = biological target: human α1G T-type channels (Homo sapiens, UniProt O43497); assay: T-type calcium channel block, whole cell patch clamp, α1G; type: cell-based; conditions: HEK cells stably expressing human α1G; mainly non-inactivated protocol; values above 10,000 nM represented as 10000
Summary of the method: (§1)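 Blockade of T-type current was measured in human α1G- or α1H-expressing HEK 293 cells using whole-cell recording with ~5 MΩ pipettes. Test compounds, dissolved in external solution containing 0.1-0.01% DMSO, were applied close to the cell, and block was examined under both non-inactivating and inactivating voltage protocols.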

[2] = biological target: human α1H T-type channels (Homo sapiens, UniProt O95180); assay: T-type calcium channel block, whole cell patch clamp, α1H; type: cell-based; conditions: HEK cells stably expressing human α1H; mainly non-inactivated protocol; values above 10,000 nM represented as 10000
Chain of human α1H T-type channels (O95180 whole entry): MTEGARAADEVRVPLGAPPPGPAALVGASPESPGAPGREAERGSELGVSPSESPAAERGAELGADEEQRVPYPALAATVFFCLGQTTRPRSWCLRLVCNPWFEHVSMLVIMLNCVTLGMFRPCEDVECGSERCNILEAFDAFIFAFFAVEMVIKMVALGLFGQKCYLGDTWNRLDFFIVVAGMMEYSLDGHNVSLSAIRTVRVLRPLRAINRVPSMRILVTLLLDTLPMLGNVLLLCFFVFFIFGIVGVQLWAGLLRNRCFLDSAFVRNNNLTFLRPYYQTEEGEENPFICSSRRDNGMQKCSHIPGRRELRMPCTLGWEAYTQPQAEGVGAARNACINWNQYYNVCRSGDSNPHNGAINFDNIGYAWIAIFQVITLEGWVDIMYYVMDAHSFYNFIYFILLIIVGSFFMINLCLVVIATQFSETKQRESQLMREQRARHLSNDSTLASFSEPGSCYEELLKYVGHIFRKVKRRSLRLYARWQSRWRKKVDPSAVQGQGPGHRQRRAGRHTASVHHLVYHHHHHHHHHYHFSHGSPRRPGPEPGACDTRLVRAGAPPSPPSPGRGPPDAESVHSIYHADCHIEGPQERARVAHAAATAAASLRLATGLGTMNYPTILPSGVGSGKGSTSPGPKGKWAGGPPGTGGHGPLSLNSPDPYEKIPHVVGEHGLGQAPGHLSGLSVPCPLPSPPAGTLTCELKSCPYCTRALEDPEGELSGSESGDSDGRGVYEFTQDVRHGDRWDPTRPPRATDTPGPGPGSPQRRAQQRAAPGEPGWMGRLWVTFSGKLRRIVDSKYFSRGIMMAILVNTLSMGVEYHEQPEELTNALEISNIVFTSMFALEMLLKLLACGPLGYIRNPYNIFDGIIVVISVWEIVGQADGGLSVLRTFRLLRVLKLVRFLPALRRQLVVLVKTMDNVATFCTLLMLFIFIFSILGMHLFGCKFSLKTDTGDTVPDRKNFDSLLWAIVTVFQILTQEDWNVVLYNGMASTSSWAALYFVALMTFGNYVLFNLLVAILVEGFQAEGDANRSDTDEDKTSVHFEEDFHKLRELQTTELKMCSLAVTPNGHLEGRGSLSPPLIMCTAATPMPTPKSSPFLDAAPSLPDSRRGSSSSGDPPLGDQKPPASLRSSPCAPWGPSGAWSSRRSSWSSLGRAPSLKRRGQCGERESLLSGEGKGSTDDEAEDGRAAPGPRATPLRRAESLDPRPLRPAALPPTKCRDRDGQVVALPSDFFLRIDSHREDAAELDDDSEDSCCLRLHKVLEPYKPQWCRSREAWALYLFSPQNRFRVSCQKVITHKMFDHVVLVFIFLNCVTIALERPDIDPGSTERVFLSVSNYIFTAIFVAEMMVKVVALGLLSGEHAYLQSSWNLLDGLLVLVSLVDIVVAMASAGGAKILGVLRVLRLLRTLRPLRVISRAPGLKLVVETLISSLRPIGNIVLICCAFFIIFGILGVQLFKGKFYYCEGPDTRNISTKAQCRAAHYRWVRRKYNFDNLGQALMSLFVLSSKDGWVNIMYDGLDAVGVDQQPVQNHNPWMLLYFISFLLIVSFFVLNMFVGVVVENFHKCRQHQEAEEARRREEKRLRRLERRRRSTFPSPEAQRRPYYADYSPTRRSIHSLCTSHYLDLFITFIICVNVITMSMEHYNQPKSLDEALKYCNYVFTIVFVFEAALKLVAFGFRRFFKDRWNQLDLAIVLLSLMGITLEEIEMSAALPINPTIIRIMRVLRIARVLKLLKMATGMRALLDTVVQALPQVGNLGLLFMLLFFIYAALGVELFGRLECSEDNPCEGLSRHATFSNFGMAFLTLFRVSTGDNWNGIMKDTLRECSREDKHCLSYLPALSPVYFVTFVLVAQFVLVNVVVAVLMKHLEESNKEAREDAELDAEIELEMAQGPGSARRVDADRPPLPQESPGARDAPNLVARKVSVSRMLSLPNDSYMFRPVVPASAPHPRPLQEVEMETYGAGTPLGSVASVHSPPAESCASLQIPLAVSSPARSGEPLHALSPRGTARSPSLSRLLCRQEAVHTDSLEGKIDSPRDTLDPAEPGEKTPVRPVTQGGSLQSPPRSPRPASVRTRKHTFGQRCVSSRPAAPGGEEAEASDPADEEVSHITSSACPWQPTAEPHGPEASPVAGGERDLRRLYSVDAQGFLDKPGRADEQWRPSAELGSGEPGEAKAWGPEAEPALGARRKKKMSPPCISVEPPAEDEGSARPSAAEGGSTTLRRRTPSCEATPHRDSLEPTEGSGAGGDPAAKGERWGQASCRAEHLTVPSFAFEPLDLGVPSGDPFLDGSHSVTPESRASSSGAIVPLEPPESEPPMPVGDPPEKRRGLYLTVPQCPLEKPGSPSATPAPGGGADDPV
Summary of the method: as §1

Chain of human α1G T-type channels (O43497 whole entry): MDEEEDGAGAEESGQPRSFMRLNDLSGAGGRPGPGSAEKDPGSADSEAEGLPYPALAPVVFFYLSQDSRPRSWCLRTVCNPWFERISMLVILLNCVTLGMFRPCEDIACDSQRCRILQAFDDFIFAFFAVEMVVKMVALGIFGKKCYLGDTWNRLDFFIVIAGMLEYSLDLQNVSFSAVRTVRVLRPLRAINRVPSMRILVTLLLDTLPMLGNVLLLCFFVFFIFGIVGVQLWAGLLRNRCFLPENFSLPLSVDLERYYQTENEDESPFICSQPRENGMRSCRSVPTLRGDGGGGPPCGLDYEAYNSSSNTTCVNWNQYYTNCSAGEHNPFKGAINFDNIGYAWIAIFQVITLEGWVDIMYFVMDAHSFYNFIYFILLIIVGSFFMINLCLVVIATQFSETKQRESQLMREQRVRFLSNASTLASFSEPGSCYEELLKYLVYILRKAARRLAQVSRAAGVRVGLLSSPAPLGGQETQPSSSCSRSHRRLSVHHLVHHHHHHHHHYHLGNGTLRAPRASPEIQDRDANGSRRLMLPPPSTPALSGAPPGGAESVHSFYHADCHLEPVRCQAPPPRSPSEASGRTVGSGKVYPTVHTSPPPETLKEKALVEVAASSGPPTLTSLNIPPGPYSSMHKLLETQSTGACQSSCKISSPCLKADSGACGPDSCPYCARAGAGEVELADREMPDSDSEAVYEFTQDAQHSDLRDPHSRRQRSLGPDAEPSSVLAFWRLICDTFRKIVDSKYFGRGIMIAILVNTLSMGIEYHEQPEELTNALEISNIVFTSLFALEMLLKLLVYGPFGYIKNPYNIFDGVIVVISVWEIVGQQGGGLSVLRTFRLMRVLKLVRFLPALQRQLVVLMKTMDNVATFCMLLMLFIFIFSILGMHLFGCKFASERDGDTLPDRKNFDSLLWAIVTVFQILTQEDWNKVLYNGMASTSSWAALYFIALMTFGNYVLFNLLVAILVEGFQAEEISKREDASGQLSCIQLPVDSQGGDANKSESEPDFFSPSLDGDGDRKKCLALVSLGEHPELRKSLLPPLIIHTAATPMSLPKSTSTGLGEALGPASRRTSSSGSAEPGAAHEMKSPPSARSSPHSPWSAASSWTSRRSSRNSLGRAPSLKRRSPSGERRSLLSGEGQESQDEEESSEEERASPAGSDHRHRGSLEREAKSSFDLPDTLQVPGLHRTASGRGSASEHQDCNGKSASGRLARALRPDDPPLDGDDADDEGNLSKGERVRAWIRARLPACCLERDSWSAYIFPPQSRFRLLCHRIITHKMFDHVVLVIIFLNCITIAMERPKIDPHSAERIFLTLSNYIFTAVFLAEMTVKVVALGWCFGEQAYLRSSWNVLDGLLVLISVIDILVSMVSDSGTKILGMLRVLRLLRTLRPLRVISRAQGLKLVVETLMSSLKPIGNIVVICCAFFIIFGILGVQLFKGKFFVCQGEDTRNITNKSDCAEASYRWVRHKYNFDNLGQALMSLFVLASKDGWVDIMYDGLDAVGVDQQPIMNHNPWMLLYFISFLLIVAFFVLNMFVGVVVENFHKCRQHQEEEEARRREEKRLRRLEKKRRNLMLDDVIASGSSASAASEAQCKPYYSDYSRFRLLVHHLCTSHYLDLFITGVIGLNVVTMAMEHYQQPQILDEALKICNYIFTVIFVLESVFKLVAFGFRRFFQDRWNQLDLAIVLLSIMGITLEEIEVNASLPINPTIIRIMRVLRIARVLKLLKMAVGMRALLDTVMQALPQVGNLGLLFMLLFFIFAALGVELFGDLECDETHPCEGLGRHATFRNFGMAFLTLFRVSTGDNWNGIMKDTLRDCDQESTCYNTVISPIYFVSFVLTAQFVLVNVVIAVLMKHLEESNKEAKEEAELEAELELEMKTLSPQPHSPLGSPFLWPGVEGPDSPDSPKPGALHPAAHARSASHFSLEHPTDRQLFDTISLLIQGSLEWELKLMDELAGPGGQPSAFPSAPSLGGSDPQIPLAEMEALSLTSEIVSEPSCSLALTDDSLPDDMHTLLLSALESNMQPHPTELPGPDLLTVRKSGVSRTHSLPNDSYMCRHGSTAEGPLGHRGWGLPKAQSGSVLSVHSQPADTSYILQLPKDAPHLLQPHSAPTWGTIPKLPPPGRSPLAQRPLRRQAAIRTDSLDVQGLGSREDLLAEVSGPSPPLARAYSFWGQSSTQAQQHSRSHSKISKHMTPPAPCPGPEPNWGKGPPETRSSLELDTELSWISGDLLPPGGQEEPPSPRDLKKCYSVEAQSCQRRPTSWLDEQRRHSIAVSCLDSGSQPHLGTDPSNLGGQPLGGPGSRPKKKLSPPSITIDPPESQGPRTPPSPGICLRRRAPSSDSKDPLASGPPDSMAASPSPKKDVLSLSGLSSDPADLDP

Row | Compound | IC50 [1] [nM] | IC50 [2] [nM]
1 | O=C(N[C@H]1CC[C@H](CS(=O)(=O)c2cccc(C(F)(F)F)c2)CC1)c1cc(F)cc(Cl)c1 [Compound 101, 3-chloro-5-fluoro-N-((1R,4R)-4-((3-(trifluoromethyl)phenylsulfonyl)methyl)cyclohexyl)benzamide] | 3670 | 3500
2 | CC(C)(CNC(=O)c1ccc(C(F)(F)F)cc1S(C)(=O)=O)S(=O)(=O)c1cccc(C(F)(F)F)c1 [Compound 474, N-(2-methyl-2-(3-(trifluoromethyl)phenylsulfonyl)propyl)-2-(methylsulfonyl)-4-(tritluoromethyl)benzamide] | 560 | > 10000
3 | CS(=O)(=O)c1ccc(C(=O)N[C@H]2CC[C@H](S(=O)(=O)c3cccc(C(F)(F)F)c3)CC2)c(Cl)c1 [Compound 122, 2-chloro-4-(methylsulfonyl)-N-((1R,4R)-4-(3-(trifluoromethyl)phenylsulfonyl)cyclohexyl)benzamide] | 690 | 990
4 | CC(C)(CNC(=O)c1ccc(Cl)c(Cl)c1)S(=O)(=O)c1cccc(C(F)(F)F)c1 [Compound 479, 3,4-dichloro-N-(2-methyl-2-(3-(trifluoromethyl)phenylsulfonyl)propyl) benzamide] | 900 | 2090
5 | CC(C)(CCNCC(=O)NC1CCCCC1)S(=O)(=O)c1cccc(C(F)(F)F)c1 [Compound 472, N-cyclohexyl-2-(3-methyl-3-(3-(trifluoromethyl)phenylsulfonyl)butylamino) acetamide] | 620 | 3470
6 | Cn1nc(C(F)(F)F)cc1C(=O)NCCC(C)(C)S(=O)(=O)c1cc(F)cc(C(F)(F)F)c1 [Compound 535, N-(3-(3-fluoro-5-(trifluoromethyl)phenylsulfonyl)-3-methylbutyl)-l-methyl-3-(trifluoromcthyl)-1H-pyrazole-5-carboxamide] | 700 | 4140
7 | CC(C)(CNS(=O)(=O)c1ccc2c(c1)NC(=O)CO2)S(=O)(=O)c1cccc(C(F)(F)F)c1 [Compound 492, N-(2-methyl-2-(3-(trifluoromethyl)phenylsulfonyl)propyl)-3-oxo-3,4-dihydro-2H-benzo[b][1,4]oxazine-6-sulfonamide] | 590 | 9260
8 | CC(C)(CCS(=O)(=O)c1ccc(Cl)cc1)S(=O)(=O)c1cccc(C(F)(F)F)c1 [Compound 462, 1-(4-(4-chlorophenylsulfonyl)-2-methylbutan-2-ylsulfonyl)-3-(trifluoromethyl)benzene] | 560 | > 10000
9 | CC(C)(CNC(=O)c1ccc(OCC(F)(F)F)nc1)S(=O)(=O)c1cccc(C(F)(F)F)c1 [Compound 483, N-(2-methyl-2-(3-(trifluoromethyl)phenylsulfonyl)propyl)-6-(2,2,2-trifluoroethoxy) nicotinamide] | 900 | 3850
10 | CN(CCC(C)(C)S(=O)(=O)c1cccc(C(F)(F)F)c1)CC(=O)NC(C)(C)C [Compound 516, N-tert-butyl-2-(methyl(3-methyl-3-(3-(trifluoromethyl)phenylsulfonyl)butyl)amino)acetamide] | 620 | > 10000
11 | CC1(NC(=O)CNCC(C)(C)S(=O)(=O)c2cccc(C(F)(F)F)c2)CCC1 [Compound 459, 2-(2-methyl-2-(3-(trifluoromethyl)phenylsulfonyl)propylamino)-N-(l-methylcyclobutyl)acetamide] | 820 | > 10000

More lines, now with the values ahead:

Row | IC50 [1] [nM] | IC50 [2] [nM] | Compound
12 | 450 | 550 | CC(C)(C(=O)Nc1nc2ccc(Cl)cc2s1)S(=O)(=O)c1cccc(C(F)(F)F)c1 [Compound 449, N-(6-chlorobenzo[d]thiazol-2-yl)-2-methyl-2-(3-(trifluoromethyl)phenylsulfonyl)propanamide]
13 | 190 | 2050 | CC(C)(CNS(=O)(=O)c1cccc(C(F)(F)F)c1)S(=O)(=O)c1cccc(C(F)(F)F)c1 [Compound 495, N-(2-methyl-2-(3-(trifluoromethyl)phenylsulfonyl)propyl)-3-(trifluoromethyl) benzenesulfonamide]
14 | 70 | > 10000 | CC(C)S(=O)(=O)c1cc(C(F)(F)F)cnc1C(=O)NCC(C)(C)S(=O)(=O)c1cccc(C(F)(F)F)c1 [Compound 527, 3-(isopropylsulfonyl)-N-(2-methyl-2-(3-(trifluoromethyl)phenylsulfonyl)propyl)-5-(trifluoromethyl)picolinamide]
15 | 190 | > 10000 | CC(C)(CCS(=O)(=O)c1cc(Cl)cc(Cl)c1)S(=O)(=O)c1cccc(C(F)(F)F)c1 [Compound 461, 1,3-dichloro-5-(3-methyl-3-(3-(trifluoromethyl)phenylsulfonyl)butylsulfonyl)benzene]
16 | 400 | 5620 | CC(C)(CNC(=O)c1ccc(C(F)(F)F)cn1)S(=O)(=O)c1cccc(C(F)(F)F)c1 [Compound 476, N-(2-methyl-2-(3-(trifluoromethyl)phenylsulfonyl)propyl)-5-(trifluoromethyl)picolinamide]
17 | 550 | 3280 | CC(C)(CN[C@H]1CC[C@@H](C(F)(F)F)CC1)S(=O)(=O)c1cccc(C(F)(F)F)c1 [Compound 519, (1S,4S)-N-(2-methyl-2-(3-(trifluoromethyl)phenylsulfonyl)propyl)-4-(trifluoromethyl) cyclohexanamine]
18 | 170 | 350 | CC(C)(CNS(=O)(=O)c1ccc(OC(F)(F)F)cc1)S(=O)(=O)c1cccc(C(F)(F)F)c1 [Compound 496, N-(2-methyl-2-(3-(trifluoromethyl)phenylsulfonyl)propyl)-4-(trifluoromethoxy) benzenesulfonamide]
19 | 290 | 2880 | CC(C)(C(=O)Nc1ccc(Oc2ccc(F)cc2)cc1)S(=O)(=O)c1cccc(C(F)(F)F)c1 [Compound 488, N-(4-(4-fluorophenoxy)phenyl)-2-methyl-2-(3-(trifluoromethyl)phenylsulfonyl)propanamide]
20 | 420 | > 10000 | CC(C)(CNS(=O)(=O)c1ccc2ncsc2c1)S(=O)(=O)c1cccc(C(F)(F)F)c1 [Compound 501, N-(2-methyl-2-(3-(trifluoromethyl)phenylsulfonyl)propyl)benzo [d]thiazole-6-sulfonamide]
21 | 260 | 1380 | CC(C)(CNS(=O)(=O)c1ccc(C(F)(F)F)cc1Cl)S(=O)(=O)c1cccc(C(F)(F)F)c1 [Compound 498, 2-chloro-N-(2-methyl-2-(3-(trifluoromethyl)phenylsulfonyl)propyl)-4-(trifluoromethyl) benzenesulfonamide]
22 | 380 | 2070 | CC(C)(C(=O)Nc1ccc(Oc2ccc(F)c(Cl)c2)nc1)S(=O)(=O)c1cccc(C(F)(F)F)c1 [Compound 524, N-(6-(3-chloro-4-tluorophenoxy)pyridin-3-yl)-2-methyl-2-(3-(trifluoromethyl)phenylsulfonyl)propanamide]
23 | 170 | 5870 | CN(CCC(C)(C)S(=O)(=O)c1cccc(C(F)(F)F)c1)C(=O)c1ccc(F)c(C(F)(F)F)c1 [Compound 510, 4-fluoro-N-methyl-N-(3-methyl-3-(3-(trifluoromethyl)phenylsulfonyl)butyl)-3-(trifluoromethyl)benzamide]
